Data set [1] relates to NCI's 60 human tumor cell line assay. Kind of data set: cells. In kind it is cell-based. To be noted: 60 cell, 48 h, read-out: IC50 (mean GI50 against NCI's 60 human tumor cell line assay).
Data set [2] is described as follows: Lactone stability in whole blood (HPLC). In kind it is in vitro ADME. The settings on record: 100 μM, 37°C, lactone peak area relative to zero time (100%); for Lactone Stability in Whole Blood (after 3 hours): 180 min. The procedure: 2. Lactone Stability in whole blood:
2 ml of blood from a healthy volunteer was collected in a tube containing 40 µl of heparin (572 IU) to prevent coagulation, 4 mM and 40 µM working solutions of the drug in DMSO were prepared and added to aliquots of whole blood to give final concentration of 100 µM and 1 µM respectively. The drug is incubated in whole blood at 37°C and 20 µl samples are collected into 180 µl of chilled methanol (-30°C) at different time intervals (0, 1, 2 & 3 hrs). Vortex and then centrifuge at 11000 rpm for 3 min in a microcentrifuge at room temperature. Dilute 100 µl of the supernatant with water to 300-500 µl depending upon the signal response (UV for 100 µM concentration and fluoroscence for 1 µM concentration) of the compound. 200 µl of the diluted sample is injected on to the HPLC column previously equilibrated with the mobile phase. The area under peak corrsponding to lactone forms is measured. Zero time peak area is taken as 100%, and the proportion of lactone peak area at different time points is calculated to determine the equilibrium lactone stability as obtained by consistent lactone proportion over two successive time points. (Biochemistry, 1994; 33:10325-10336 and J. Pharm. Sci., 1995; 84:518-519).

The structures appear in SMILES notation. Where only a bound is given, the exact number is not on record here.

With `CCOC1c2c(nc3ccccc3c2CC)-c2cc3c(c(=O)n21)COC(=O)[C@]3(O)CC` (stereo partly drawn) [Example 3, 5-Ethoxy-7-ethylcamptothecin], in data set [1], the mean GI50 amounted to 1.41 µM.

For `CC[C@@]1(O)C(=O)OCc2c1cc1n(c2=O)C(OCCCl)c2cc3ccccc3nc2-1` (stereo partly drawn) [Example 24, 5-(2'-Chloroethoxy)camptothecin], the mean GI50 in data set [1] was 4.57 µM.

Take `CCOC1c2cc3c(OC)cccc3nc2-c2cc3c(c(=O)n21)COC(=O)[C@]3(O)CC` (stereo partly drawn) [Example 5, 5-Ethoxy-9-methoxycamptothecin]: the mean GI50 in data set [1] amounted to 2.45 µM.

In the case of `CCOC1c2cc3ccccc3nc2-c2cc3c(c(=O)n21)COC(=O)[C@]3(O)CC` (stereo partly drawn) [Example 9, 5-Ethoxycamptothecin], in data set [1], the mean GI50 was 9.54 µM.

For `CCOC1c2cc3c(O)cccc3nc2-c2cc3c(c(=O)n21)COC(=O)[C@]3(O)CC` (single isomer, unassigned) [Example 11 Diastereomer B, 5-Ethoxy-9-hydroxycamptothecin], in data set [2], the “Lactone Stability in Whole Blood (after 3 hours)” value (“Lactone Stability in Whole Blood” below) was found to be 6.15±2.53.

With `CCOC1c2cc3cccc([N+](=O)[O-])c3nc2-c2cc3c(c(=O)n21)COC(=O)[C@]3(O)CC` (stereo partly drawn) [Example 16, 12-Nitro-5-ethoxycamptothecin], the mean GI50 in data set [1] was over 30 µM.

For `CC[C@@]1(O)C(=O)OCc2c1cc1n(c2=O)C(OCCF)c2cc3ccccc3nc2-1` (stereo partly drawn) [Example 29, 5-(2'-fluoroethoxy)camptothecin], the mean GI50 in data set [1] amounted to 1.58 µM.

As to `CCc1c2c(nc3ccccc13)-c1cc3c(c(=O)n1C2OCCF)COC(=O)[C@]3(O)CC` (stereo partly drawn) [Example 31, 5-(2'-Fluoroethoxy)-7-ethylcamptothecin], the mean GI50 in data set [1] came out at 4.36 µM.

As to `CCCCOC1c2cc3ccccc3nc2-c2cc3c(c(=O)n21)COC(=O)[C@]3(O)CC` (stereo partly drawn) [Example 10, 5-butoxycamptothecin], the mean GI50 in data set [1] is 6.16 µM.

Regarding `CCOC1c2c(nc3cccc(OC)c3c2CC)-c2cc3c(c(=O)n21)COC(=O)[C@]3(O)CC` (stereo partly drawn) [Example 7, 5-Ethoxy-9-methoxy-7-ethylcamptothecin], the mean GI50 in data set [1] is 2.13 µM.

Turning to `CC[C@@]1(O)C(=O)OCc2c1cc1n(c2=O)C(OCC(F)(F)F)c2cc3cc(O)ccc3nc2-1` (single isomer, unassigned) [Example 27 Diastereomer A, 10-Hydroxy-5-trifluoroethoxycamptothecin], the “Lactone Stability in Whole Blood” value in data set [2] was 4.58±1.72.

As for `CCc1c2c(nc3ccccc13)-c1cc3c(c(=O)n1C2OCCN1CCCCC1)COC(=O)[C@]3(O)CC` (stereo partly drawn) [7-Ethyl-5-piperidinoethoxy camptothecin], in data set [1], the mean GI50 was over 30 µM.

`CC[C@@]1(O)C(=O)OCc2c1cc1n(c2=O)C(OCC(F)(F)F)c2cc3cc(O)ccc3nc2-1` (single isomer, unassigned) [Example 27 Diastereomer B, 10-Hydroxy-5-trifluoroethoxycamptothecin]: the “Lactone Stability in Whole Blood” value in data set [2] is reported as 11.9±2.91.

As to `CCc1c2c(nc3ccccc13)-c1cc3c(c(=O)n1C2OCC(F)(F)F)COC(=O)[C@]3(O)CC` (stereo partly drawn) [7-Ethyl-5-trifluoroethoxycamptothecin], in data set [1], the mean GI50 turned out to be 7.41 µM.

Take `CCc1c2c(nc3ccccc13)-c1cc3c(c(=O)n1C2OCCCl)COC(=O)[C@]3(O)CC` (stereo partly drawn) [Example 40, 5-(2'-chloroethoxy)-7-ethylcamptothecin]: the mean GI50 in data set [1] is 2.75 µM.

With `CC[C@@]1(O)C(=O)OCc2c1cc1n(c2=O)C(OCCN)c2cc3ccccc3nc2-1` (stereo partly drawn) [Example 36, 5-(2'-aminoethoxy) camptothecin], the mean GI50 in data set [1] turned out to be 30 µM.

With `CCc1c2c(nc3ccccc13)-c1cc3c(c(=O)n1C2OCCCN(C)C)COC(=O)[C@]3(O)CC` (stereo partly drawn) [Example 38, 5-(3'-dimethylaminopropoxy)-7-ethylcamptothecin], the mean GI50 in data set [1] is over 30 µM.

In the case of `CC[C@@]1(O)C(=O)OCc2c1cc1n(c2=O)C(OCCO)c2cc3cc(O)ccc3nc2-1` (stereo partly drawn) [Example 33, 5-(2'-Hydroxyethoxy)-10-hydroxycamptothecin], the mean GI50 in data set [1] came to 8.12 µM.

On to `CCOC1c2cc3c(O)cccc3nc2-c2cc3c(c(=O)n21)COC(=O)[C@]3(O)CC` (single isomer, unassigned) [Example 11 Diastereomer A, 5-Ethoxy-9-hydroxycamptothecin], for which the remaining at 3 h, 100 µM in data set [2] (human, whole blood, read-out: Lactone Stability in Whole Blood (after 3 hours)) was determined as 3.73 ± 1.5%.

On to `CCc1c2c(nc3ccccc13)-c1cc3c(c(=O)n1C2OCCN(C)C)COC(=O)[C@]3(O)CC` (stereo partly drawn) [Example 41, 5-(2'-dimethylaminoethoxy)-7-ethylcamptothecin], for which the mean GI50 in data set [1] is 13.8 µM.

As for `CC[C@@]1(O)C(=O)OCc2c1cc1n(c2=O)C(OCCOC)c2cc3c([N+](=O)[O-])cccc3nc2-1` (stereo partly drawn) [9-Nitro-5-methoxyethoxy camptothecin], the mean GI50 in data set [1] was found to be 2.04 µM.

Consider `CC[C@@]1(O)C(=O)OCc2c1cc1n(c2=O)C(OC)c2cc3c(N)cccc3nc2-1` (stereo partly drawn) [Example 20, 9-amino-5-methoxycamptothecin], for which the mean GI50 in data set [1] came out at 6.76 µM.

In the case of `CC[C@@]1(O)C(=O)OCc2c1cc1n(c2=O)C(O)c2cc3cccc([N+](=O)[O-])c3nc2-1` (stereo partly drawn) [Example 23, 12-Nitro-5-hydroxy camptothecin], in data set [1], the mean GI50 was over 30 µM.

Turning to `CC[C@@]1(O)C(=O)OCc2c1cc1n(c2=O)C(OC)c2cc3ccccc3nc2-1` (stereo partly drawn) [Example 1, 5-methoxycamptothecin], the mean GI50 in data set [1] was 8.5 µM.

The values are drawn from patent EP0847397B1, “WATER-SOLUBLE C-RING ANALOGUES OF 20 (S)-CAMPTOTHECIN” (DR. REDDY'S RESEARCH FOUNDATION, priority 1996, dated 1997).
